From patent US8501725B2, “Synergistic combination of flumetsulam or diclosulam with zinc pyrithione” (Dow Global Technologies LLC, priority 2010, dated 2013)
Where two headings read alike, the source gives them in different places.

Experiments:
Assay type in all cases: cell-based
[1] = system: Gloeocapsa sp. and Oscillatoria sp. (Gs + Os); assay: Algal efficacy testing, modified ASTM 5589, paint film (both studies); conditions: four weeks; for MIC: 672 h, read-out: Total conc (minimum inhibitory concentration chosen for SI); for MIC / Total conc (minimum inhibitory concentration chosen for SI): in acrylic latex paint, dry film; for % inhibition: at the Total conc given
Method: (§1) Sample preparation: A single or blend of biocides was post added into white acrylic latex paint free of biocides to give a maximum total active ingredient/s concentration tested. This paint was then diluted with a biocide free acrylic latex paint to give targeted concentrations for the testing. Depending on the type of biocide blends tested, the total biocides concentrations varies from 200 to 5000 ppm. After biocides addition or dilution, each sample was hand mixed for at least a minute until uniformity is achieved. Each of the paint samples as well as a control sample (containing no biocide) were used to prepare films on black plastic-vinyl chloride/acetate copolymer panels (LENETA, Mahwah, N.J.) using a 3 mil (0.0762 mm) bird bar applicator. The panels were thoroughly dried for at least 2 days avoiding direct exposure to sunlight. Square discs ([…]) were cut out from each panel and were used as the substrate for fungal and algal efficacy tests. This sample size allowed for an agar border when the sample disc was placed into the well of the test plate. Each sample was tested in duplicate
(§2) Test conditions: The appropriate media (BOLD'S 3N for Chlorophytes, BG-11 for Cyanobacteria, and PDA for fungi) were used to support microbial growth. The test plates were maintained at room temp (25° C.-26° C.), in a cycled light-dark environment, for four weeks for algae. Plates for fungal challenge tests were maintained at 30 C for four weeks. At the end of the incubation period the samples were scored for percent area covered by visible microbial growth.
(§3) ASTM 5589 is a standard accelerated test method for determining resistance of various coatings (including paints) to algal defacement. To accommodate for high-throughput screening, this method was scaled down from petri plates to 6-well plates. A single coupon was placed with a pair of sterile forceps at the center of the agar plug (on top) with the painted surface facing upwards. Algal inoculums were prepared by mixing equal concentrations (1×10^6 cfu/ml) and equal volumes (depending on number of samples to be inoculated) of like growing organisms.
(§4) In Flumetsulam+various IT synergy study, three pool of mixed algae were prepared as the test inoculum, Gloeocapsa sp. and Oscillatoria sp. a mix of cyanobacteria grown on BG-11 media; Chlorella sp., Chlorella kessleri, and Nostoc commune are unicellular chlorphytes that were mixed and grown on Bold media; Trentepohlia aurea, Tretepohlia odorata, and Calotrix parientina are filamentous algae that were mixed and grown on Bold media.
(§5) In Diclosulam+various IT synergy study, only two pools of mixed algae were prepared; Gloeocapsa sp. and Oscillatoria sp. grown on BG-11 media and Chlorella sp., Chlorella kessleri, Nostoc commune, Trentepohlia aurea, Tretepohlia odorata, and Calotrix parientina grown on Bold media
(§6) Each well that contains a tested coupon was inoculated with 400 μl of organism mixture (1×10^6 cfu/ml) making sure that the whole surface (paint film as well as the agar surrounding it) was evenly covered. The plates were incubated at room temp (25° C.-26° C.) with cyclic exposure to light (OTT-Lite model # OTL4012P, 40 Watt, 26KLumen) and dark phases, for a period of four weeks. The total area covered was evaluated at the end of each week according to percent area covered in 5% increments.
(§7) The SI is calculated based on F. C.
(§8) NE=no end point at the concentration tested that will meet the percent inhibition criteria set in each SI calculation

[2] = system: Chlorella sp., Chlorella kessleri, Nostoc commune, Trentepohlia aurea, Tretepohlia odorata, and Calotrix parientina (Cp + To + Ta + Cs + Ck + Nc); assay: Algal efficacy testing, modified ASTM 5589, paint film (Diclosulam + ZPT study); conditions: four weeks; for % inhibition: at the Total conc given
Method: as §1, §2, §3, §5
(§9) Each well that contains a tested coupon was inoculated with 400 μl of organism mixture (1×10^6 cfu/ml) making sure that the whole surface (paint film as well as the agar surrounding it) was evenly covered. […] The total area covered was evaluated at the end of each week according to percent area covered in 5% increments.
(§10) The SI is calculated based on F. C. […]

[3] = as above; conditions: Nostoc commune, 672 h; Cp + To + Ta + Cs + Ck + Nc; in acrylic latex paint, dry film; four weeks; read-out: Total conc (minimum inhibitory concentration chosen for SI)
Method: as §1, §2, §3, §5, §9, §10

[4] = system: Aa + Tv + An + Pf + Ap + Ch; assay: Fungal efficacy testing, modified ASTM 5590, paint film (Diclosulam + ZPT study, single pool of all fungi); conditions: four weeks; for % inhibition: at the Total conc given; for Total conc: in acrylic latex paint, dry film, 30 C
Method: as §1, §2
ASTM 5590 is a standard accelerated test method for determining resistance of various coatings (including paints) to fungal defacement. To accommodate for high-throughput screening, this method was scaled down from petri plates to 6-well plates. To set up the test, an agar plug was placed at the bottom of each well of the sterile 6-well plate. A single coupon was placed with a pair of sterile forceps at the center of the agar plug (on top) with the painted surface facing upwards. Fungal inoculums were prepared by mixing equal concentrations (1×10^6 cfu/ml) and equal volumes (depending on number of samples to be tested) of like growing organisms. For Flumetsulam+various IT synergy study, three pools of mixed fungi were prepared as the test inoculum. Cladosporium herbarum was mixed with Aureobasidium pullulans; Aspergillus niger was mixed with Penicillium funiculosum and Alternaria alternata was mixed with Trichoderma viride. For Diclosulam+various IT synergy study, all above fungi were mixed as a single pool. […] The total percent area covered was evaluated and recorded at the end of each week after the 2nd week and recorded in increments of 5%.
as §10

[5] = system: Chlorella sp., Chlorella kessleri, and Nostoc commune (Cs + Ck + Nc); assay: Algal efficacy testing, modified ASTM 5589, paint film (Flumetsulam + ZPT study); conditions: four weeks; for % inhibition: at the Total conc given
Method: as §1, §2, §3, §4, §6, §7, §8

[6] = system: Trentepohlia aurea, Tretepohlia odorata, and Calotrix parientina (Cp + To + Ta); assay: as above; conditions: four weeks; for % inhibition: at the Total conc given; for Total conc (minimum inhibitory concentration chosen for SI): in acrylic latex paint, dry film, 25-26 C, light-dark
Method: as §1, §2, §3, §4, §6, §7, §8

[7] = system: Cladosporium herbarum mixed with Aureobasidium pullulans (ApCh); assay: Fungal efficacy testing, modified ASTM 5590, paint film (Flumetsulam + ZPT study); conditions: four weeks; for % inhibition: at the Total conc given
Method: as §1, §2
(§11) ASTM 5590 is a standard accelerated test method for determining resistance of various coatings (including paints) to fungal defacement. To accommodate for high-throughput screening, this method was scaled down from petri plates to 6-well plates. To set up the test, an agar plug was placed at the bottom of each well of the sterile 6-well plate. A single coupon was placed with a pair of sterile forceps at the center of the agar plug (on top) with the painted surface facing upwards. Fungal inoculums were prepared by mixing equal concentrations (1×10^6 cfu/ml) and equal volumes (depending on number of samples to be tested) of like growing organisms. For Flumetsulam+various IT synergy study, three pools of mixed fungi were prepared as the test inoculum. Cladosporium herbarum was mixed with Aureobasidium pullulans; Aspergillus niger was mixed with Penicillium funiculosum and Alternaria alternata was mixed with Trichoderma viride. For Diclosulam+various IT synergy study, all above fungi were mixed as a single pool. Each well was inoculated with 400 μl of organism mixture (1×10^6 cfu/ml) making sure that the whole surface (paint film as well as the agar surrounding it) was evenly covered. The plates were incubated at 30° C. in presence of moisture, for a period of four weeks. The total percent area covered was evaluated and recorded at the end of each week after the 2nd week and recorded in increments of 5%.
as §7, §8

[8] = system: Alternaria alternata mixed with Trichoderma viride (AaTv); assay: as above; conditions: four weeks; for % inhibition: at the Total conc given
Method: as §1, §2, §11, §7, §8

[9] = system: Aspergillus niger mixed with Penicillium funiculosum (AnPf); assay: as above; conditions: four weeks; for % inhibition: at the Total conc given
Method: as §1, §2, §11, §7, §8

[10] = in acrylic latex paint, dry film, 30 C

## CCOc1nc(F)cc2nc(S(=O)(=O)Nc3c(Cl)cccc3Cl)nn12 [Diclosulam, N-(2,6-dichlorophenyl)-5-ethoxy-7-fluoro[1,2,4]triazolo[1,5-c]pyrimidine-2-sulfonamide]
[1]; Diclosulam and ZPT study
  MIC: 438 µg/mL
  % inhibition: 100%
[2]
  % inhibition: 80%
[3]
  MIC: 3500 µg/mL
[4]
  % inhibition: 0%
  Total conc: 3500 ppm

## zinc pyrithione [ZPT]
[5]
  % inhibition: 100%
[5]; in acrylic latex paint, dry film, 25-26 C, light-dark
  Total conc (minimum inhibitory concentration chosen for SI): 625 ppm
[6]
  % inhibition: 100%
  Total conc (minimum inhibitory concentration chosen for SI): 625 ppm
[1]; Diclosulam and ZPT study
  % inhibition: 100%
  Total conc (minimum inhibitory concentration chosen for SI): 625 ppm
[1]; Flumetsulam and ZPT study
  % inhibition: 100%
  Total conc (minimum inhibitory concentration chosen for SI): 625 ppm
[2]
  % inhibition: 100%
[2]; in acrylic latex paint, dry film
  Total conc (minimum inhibitory concentration chosen for SI): 625 ppm
[7]
  % inhibition: 100%
[7]; [10]
  Total conc (minimum inhibitory concentration chosen for SI): 625 ppm
[8]
  % inhibition: 50%
[8]; in acrylic latex paint, dry film, 30 C, NE = no end point at the concentration tested
  Total conc (minimum inhibitory concentration chosen for SI): 5000 ppm
[9]
  % inhibition: 100%
[9]; [10]
  Total conc (minimum inhibitory concentration chosen for SI): 625 ppm
[4]
  % inhibition: 0%
  Total conc: 5000 ppm

## Cc1ccn2nc(S(=O)(=O)Nc3c(F)cccc3F)nc2n1 [Flumetsulam, N-(2,6-difluorophenyl)-5-methyl[1,2,4]triazolo[1,5-a]pyrimidine-2-sulfonamide]
[5]; Nostoc commune, 672 h, in acrylic latex paint, dry film, 25-26 C, light-dark, read-out: Total conc (minimum inhibitory concentration chosen for SI)
  MIC: 3500 µg/mL
[5]
  % inhibition: 90%
[6]
  % inhibition: 100%
  Total conc (minimum inhibitory concentration chosen for SI): 2625 ppm
[1]; Flumetsulam and ZPT study
  MIC: 2620 µg/mL
  % inhibition: 0%
[7]; Cladosporium herbarum, 672 h, in acrylic latex paint, dry film, 30 C, read-out: Total conc (minimum inhibitory concentration chosen for SI)
  MIC: 3500 µg/mL
[7]
  % inhibition: 25%
[8]; Alternaria alternata, 672 h, in acrylic latex paint, dry film, 30 C, NE = no end point at the concentration tested, read-out: Total conc (minimum inhibitory concentration chosen for SI)
  MIC: 3500 µg/mL
[8]
  % inhibition: 0%
[9]; Aspergillus niger, 672 h, in acrylic latex paint, dry film, 30 C, read-out: Total conc (minimum inhibitory concentration chosen for SI)
  MIC: 3500 µg/mL
[9]
  % inhibition: 0%
